# Experiments:
# [1] = test system: HCT-116; assay: Cellular proliferation assay (Alamar blue), HCT-116; format: cell-based; conditions: Homo sapiens; HCT-116 cells; 10% FCS; 72 h with compound; Alamar blue 4 h; read-out: pIC50 HCT-116 (converted)
# Procedure: (§1) Cellular proliferation of these compounds was tested on a panel of different cell lines in the presence of 10% FCS serum (37° C. and 5% (v/v) CO2). In a first step these cells were seeded and incubated for 24 hours in the absence of compound. In the second step the cells were incubated for 72 hours with the compounds to be tested for 72 hours. The viable cell number was finally assessed in a standard Alamar blue cell viability assay.
# (§2) The viable cell number was assessed by incubation for either 4 h (HCT-116, H1299) 6 h (U87-MG) or 24 h (A2780, PC3, MDA-MB-231) with Alamar blue (Resazurin 9 μg/ml, K-Ferrocyanide 90 μM, K-Ferricyanide 90 μM) and the converted fluorescent product was quantified on a fluorescent plate readed (544 nm/590 nm). Effect of the compounds is calculated as of on control cells.
# [2] = test system: H1299; assay: Cellular proliferation assay (Alamar blue), H1299; format: cell-based; conditions: Homo sapiens, NCI-H1299, H1299 cells; 10% FCS; 72 h with compound; Alamar blue 4 h; read-out: pIC50 H1299 (converted)
# Procedure: as §1, §2
# [3] = test system: A2780; assay: Cellular proliferation assay (Alamar blue), A2780; format: cell-based; conditions: Homo sapiens, A2780, A2780 cells; 10% FCS; 72 h with compound; Alamar blue 24 h; read-out: pIC50 A2780 (converted)
# Procedure: as §1, §2
# [4] = test system: U87-MG; assay: Cellular proliferation assay (Alamar blue), U87-MG; format: cell-based; conditions: Homo sapiens, U-87 MG; U87-MG cells; 10% FCS; 72 h with compound; Alamar blue 6 h; read-out: pIC50 U87MG (converted)
# Procedure: as §1, §2
# [5] = test system: PC3; assay: Cellular proliferation assay (Alamar blue), PC3; format: cell-based; conditions: Homo sapiens, PC-3, PC-3 cells; 10% FCS; 72 h with compound; Alamar blue 24 h; read-out: pIC50 PC-3 (converted)
# Procedure: as §1, §2
# [6] = test system: MDA-MB-231; assay: Cellular proliferation assay (Alamar blue), MDA-MB-231; format: cell-based; conditions: Homo sapiens, MDA-MB-231, MDA-MB-231 cells; 10% FCS; 72 h with compound; Alamar blue 24 h; read-out: pIC50 MDA/MB231 (converted)
# Procedure: as §1, §2
# [7] = target: T1, PLK4 (h) (Homo sapiens, UniProt O00444); assay: PLK-4 human kinase scintillation proximity assay (SPA); format: biochemical; conditions: 1 μM ATP, 60 minutes at r.t., read-out: PLK4 pIC50 (converted)
# T1 sequence (O00444 1-970): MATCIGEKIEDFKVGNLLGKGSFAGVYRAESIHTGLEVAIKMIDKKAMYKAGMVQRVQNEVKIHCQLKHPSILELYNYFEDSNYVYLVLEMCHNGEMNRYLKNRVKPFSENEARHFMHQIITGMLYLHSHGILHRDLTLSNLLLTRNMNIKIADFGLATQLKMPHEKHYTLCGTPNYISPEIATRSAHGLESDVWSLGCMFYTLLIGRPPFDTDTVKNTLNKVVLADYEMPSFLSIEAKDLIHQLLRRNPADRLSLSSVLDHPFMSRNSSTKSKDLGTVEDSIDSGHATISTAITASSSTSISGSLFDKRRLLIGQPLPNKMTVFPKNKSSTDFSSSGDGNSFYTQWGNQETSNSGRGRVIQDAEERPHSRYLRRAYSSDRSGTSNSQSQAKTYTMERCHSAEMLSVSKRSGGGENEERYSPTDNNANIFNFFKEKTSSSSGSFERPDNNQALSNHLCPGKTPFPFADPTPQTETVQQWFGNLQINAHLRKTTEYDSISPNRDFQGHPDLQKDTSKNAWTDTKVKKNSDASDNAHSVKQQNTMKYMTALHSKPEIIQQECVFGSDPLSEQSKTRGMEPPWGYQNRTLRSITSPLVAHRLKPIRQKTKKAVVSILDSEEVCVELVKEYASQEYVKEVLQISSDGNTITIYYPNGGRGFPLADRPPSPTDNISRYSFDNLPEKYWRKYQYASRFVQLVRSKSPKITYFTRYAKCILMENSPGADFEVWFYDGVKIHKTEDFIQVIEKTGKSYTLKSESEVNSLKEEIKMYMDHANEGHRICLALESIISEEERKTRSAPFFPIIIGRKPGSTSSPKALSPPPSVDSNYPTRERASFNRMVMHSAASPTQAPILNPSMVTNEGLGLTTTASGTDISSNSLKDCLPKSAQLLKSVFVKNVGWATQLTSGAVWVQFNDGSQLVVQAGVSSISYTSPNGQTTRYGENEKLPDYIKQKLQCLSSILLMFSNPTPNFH
# Procedure: The in vitro inhibition of a panel of kinases was assessed using either the scintillation proximity assay (SPA) as described by Cook, N. D. et al., Advances in Experimental Medicine and Biology (1991), 36; p. 525-528.
# In the SPA technology the activity of the kinase of interest is measured using an appropriate biotinylated substrate that is incubated with the aforementioned kinase protein in the presence of (^33P) radiolabeled ATP. (^33P) Phosphorylation of the substrate is subsequently measured through binding of the phosphorylated substrate to streptavidine coated beads that are based on the scintillant poly(vinyl toluene) (PVT-Beads). The scintillation intensity is detected by imaging on Leadseeker.
# All kinases are pre-diluted to a 10× working concentration prior to addition into the assay. The composition of the dilution buffer for each kinase is detailed below.
# In a final reaction volume of 30 μl, PLK4 (h) (19 μg/ml) is incubated with 50 mM Hepes pH 8.0, 10 mM MgCl2, 50 mM NaCl, 1 mM NaF, 1 mM DTT, 10 μM of peptide Biotin-RPRGQRDSSYYWE-OH, 1 μM ATP and 2 nM [γ-^33P-ATP] (6.0 μCi/ml). After incubation of 60 minutes at r.t., the reaction is stopped by addition of 40 μL of stop solution containing 8.7 mM EDTA, BSA 0.17%, 0.17% Triton X-100, 1.7 mg/ml SPA beads (GE-healthcare). The plate is centrifuged and read for Scintillation imaging on Leadseeker.
IC50 [1] [µM],IC50 [2] [µM],IC50 [3] [µM],IC50 [4] [µM],IC50 [5] [µM],IC50 [6] [µM],IC50 [7] [µM],Compound
0.794,2.51,2.51,> 10,> 10,> 10,0.0631,CN1CCCN(C)C(=O)COc2cc(ccc2NC(=O)Nc2cccc(Cl)c2)Nc2ncnc3[nH]cc(c23)C1 [Compound 67]
5.01,> 10,> 10,10,> 10,> 10,0.501,COc1ccc2cc1OCC(=O)NCC1CN(Cc3c[nH]c4ncnc(c34)N2)C1 [Compound 88]
2,3.98,1,3.98,> 10,> 10,0.0251,CN1CCCN(C)C(=O)COc2cc(ccc2NC(=O)NC2CCCCC2)Nc2ncnc3[nH]cc(c23)C1 [Compound 13]
0.2,0.631,0.0794,3.98,6.31,5.01,0.0316,CN1CCCN(C)C(=O)COc2cc(ccc2NC(=O)Nc2ccc(Cl)cc2)Nc2ncnc3[nH]cc(c23)C1 [Compound 116]
0.501,1,0.398,2.51,6.31,5.01,0.0251,COCCOCCOc1ccc2cc1OCC(=O)N(C)CCCN(C)Cc1c[nH]c3ncnc(c13)N2 [Compound 128]
5.01,6.31,1.26,> 10,> 10,> 10,0.0251,CN1CCCN(C)C(=O)COc2cc(ccc2OCC(=O)NC2CC2)Nc2ncnc3[nH]cc(c23)C1 [Compound 125]
> 10,> 10,> 10,> 10,> 10,> 10,> 10,COc1cc2cc(c1OC)OCCCC(=O)N1CCN(CC1)Cc1c[nH]c3ncnc(c13)N2 [Compound 112]
3.98,7.94,2,6.31,7.94,10,0.501,CN1CCCN(C)C(=O)COc2cc(ccc2OCCN2CCOCC2)Nc2ncnc3[nH]cc(c23)C1 [Compound 126]
0.631,1.58,0.631,1.58,3.16,2,0.0398,CN1CCCN(C)C(=O)COc2cc(ccc2OCC2CC2)Nc2ncnc3[nH]cc(c23)C1 [Compound 68]
> 10,> 10,> 10,> 10,> 10,> 10,5.01,CN1CCCN(C)C(=O)CCc2cc(ccc2N2CCOCC2)Nc2ncnc3[nH]cc(c23)C1 [Compound 56]
> 10,> 10,> 10,> 10,> 10,> 10,> 10,COc1ccc2cc1CN(C)CC(=O)N(C)CCCc1c[nH]c3ncnc(c13)N2 [Compound 34]
> 10,> 10,> 10,> 10,> 10,> 10,0.126,COc1ccc2cc1OCCCC(=O)N(C)CCN(C)Cc1c[nH]c3ncnc(c13)N2 [Compound 1]
> 10,> 10,> 10,> 10,> 10,> 10,> 10,COc1ccc2cc1CN(C)CCCC(=O)N(C)CCCc1c[nH]c3ncnc(c13)N2 [Compound 5]
> 10,> 10,> 10,> 10,> 10,> 10,5.01,COc1cc(NC(=O)COc2ccc3cc2OCC(=O)N(C)CCCN(C)Cc2cn(C)c4ncnc(c24)N3)cc(OC)c1OC [Compound 145]
1.58,3.98,1.26,2,3.98,3.98,0.0794,COCCCOc1ccc2cc1OCC(=O)N(C)CCCN(C)Cc1c[nH]c3ncnc(c13)N2 [Compound 132]
6.31,7.94,3.98,> 10,> 10,> 10,0.2,CC(C)NC(=O)Nc1ccc2cc1OCC(=O)N(C)CCCN(C)Cc1c[nH]c3ncnc(c13)N2 [Compound 122]
> 10,> 10,> 10,> 10,> 10,> 10,0.251,CN1CCCN(C)C(=O)COc2cc(cc(C(F)(F)F)c2)Nc2ncnc3[nH]cc(c23)C1 [Compound 54]
> 10,> 10,> 10,> 10,> 10,> 10,,CCOCCOc1cc(OC)c2cc1OCC(=O)N(C)CCCN(C)Cc1c[nH]c3ncnc(c13)N2 [Compound 151]
1.58,3.98,2,3.16,6.31,7.94,,COc1ccc2cc1N(C)CC(=O)N(C)CCCN(C)Cc1c[nH]c3ncnc(c13)N2 [Compound 153]
0.316,0.631,0.251,1,5.01,5.01,,CN1CCCN(C)C(=O)COc2cc(ccc2OCCOc2cc(C(F)(F)F)ccn2)Nc2ncnc3[nH]cc(c23)C1 [Compound 154]
2,6.31,1.58,3.16,7.94,> 10,,CN1CCCN(C)C(=O)COc2cc(ccc2OCCNc2ncccn2)Nc2ncnc3[nH]cc(c23)C1 [Compound 159]
5.01,3.98,1.58,3.16,5.01,10,,Cc1nc2c3c(c[nH]c3n1)CN(C)CCCN(C)C(=O)COc1cc(ccc1Cl)N2 [Compound 148]

# Reference: patent US8318731B2, “Pyrrolopyrimidines” (Janssen Pharmaceutica NV, priority 2007, dated 2012)
